Assay type in all cases: cell-based
The nature of data set [1]: Cytotoxicity against human KBV cells assessed as cell viability at 10 uM incubated for 72 hrs by MTT assay. To be noted: read-out: Activity. (In general: Tetrazolium assays rely on reduction of a dye to a coloured formazan, in cell work by metabolically active cells.)
Data set [2] concerns KBV. Put plainly: Reversal of Pgp-mediated paclitaxel resistance in human KBV cells assessed as cell viability at 5 uM in presence of paclitaxel incubated for 72 hrs by MTT assay.
Data set [3] relates to KBV. Put plainly: Reversal of Pgp-mediated paclitaxel resistance in human KBV cells assessed as cell viability at 10 uM in presence of paclitaxel incubated for 72 hrs by MTT assay.

SMILES strings stand for the structures.

With `CC(C)(C)OC(=O)C[C@H](NC(=O)OC(C)(C)C)C(=O)O[C@H]1CC[C@]2(C)[C@H]3C[C@@H](O)[C@@H]4[C@@H]([C@]5(C)CC[C@H](C(C)(C)O)O5)CC[C@@]4(C)[C@]3(C)CC[C@H]2C1(C)C`, in data set [1], the viability at 72 h, 10 µM came out at 85%. Moreover, the Activity in the data set with KBV [2] (filed as modulator) was found to be 32%; with KBV [3] (filed as modulator), 20%.
Take `CC(C)(O)[C@H]1CC[C@@](C)([C@H]2CC[C@]3(C)[C@@H]2[C@H](O)C[C@@H]2[C@@]4(C)CC[C@H](OC(=O)[C@@H](N)CCC(=O)O)C(C)(C)[C@@H]4CC[C@]23C)O1`: the viability at 72 h, 10 µM in data set [1] came to 106%. For the same compound, the figures for the Activity with KBV [2] and in the data set with KBV [3] were 105% and 72%, respectively.
With `CC(C)(C)OC(=O)C[C@H](NC(=O)OC(C)(C)C)C(=O)O[C@H]1CC[C@]2(C)[C@H]3C[C@@H](O)[C@@H]4[C@@H]([C@]5(C)CC[C@@H](C(C)(C)O)O5)CC[C@@]4(C)[C@]3(C)CC[C@H]2C1(C)C`, the viability at 72 h, 10 µM in data set [1] stood at 88%. For the same compound, the Activity with KBV [2] (filed as modulator) is 35%; in the data set on KBV [3] (filed as modulator) it was 17%.
The matching figures for `CC(C)[C@H](N)C(=O)O[C@H]1CC[C@]2(C)[C@H]3C[C@@H](O)[C@@H]4[C@@H]([C@]5(C)CC[C@@H](C(C)(C)O)O5)CC[C@@]4(C)[C@]3(C)CC[C@H]2C1(C)C`: 96%, 49% and 25%.
Taken in the same sequence, the figures for `CC(C)(C)OC(=O)NCC(=O)O[C@H]1CC[C@]2(C)[C@H]3C[C@@H](O)[C@@H]4[C@@H]([C@]5(C)CC[C@H](C(C)(C)O)O5)CC[C@@]4(C)[C@]3(C)CC[C@H]2C1(C)C` were 106%, 28% and 22%.
The matching figures for `CC(C)(C)OC(=O)NCCCC[C@H](NC(=O)OC(C)(C)C)C(=O)O[C@H]1CC[C@]2(C)[C@H]3C[C@@H](O)[C@@H]4[C@@H]([C@]5(C)CC[C@H](C(C)(C)O)O5)CC[C@@]4(C)[C@]3(C)CC[C@H]2C1(C)C`: 147%, 34% and 31%.
On to `CC(C)(O)[C@@H]1CC[C@@](C)([C@H]2CC[C@]3(C)[C@@H]2[C@H](O)C[C@@H]2[C@@]4(C)CC[C@H](OC(=O)[C@@H](N)CC(=O)O)C(C)(C)[C@@H]4CC[C@]23C)O1`, for which, in data set [1], the viability at 72 h, 10 µM came to 106%. The values for the Activity in the data set on KBV [2] and with KBV [3] were 110% and 92%, respectively.
As to `C[C@@H](OCc1ccccc1)[C@H](N)C(=O)O[C@H]1CC[C@]2(C)[C@H]3C[C@@H](O)[C@@H]4[C@@H]([C@]5(C)CC[C@H](C(C)(C)O)O5)CC[C@@]4(C)[C@]3(C)CC[C@H]2C1(C)C`, in data set [1], the viability at 72 h, 10 µM was 20%. Besides, the Activity with KBV [2] (filed as modulator) is 31%; in the data set with KBV [3] (filed as modulator), 18%.
Regarding `CC(C)(O)[C@@H]1CC[C@@](C)([C@H]2CC[C@]3(C)[C@@H]2[C@H](O)C[C@@H]2[C@@]4(C)CC[C@H](OC(=O)CN)C(C)(C)[C@@H]4CC[C@]23C)O1`, the viability at 72 h, 10 µM in data set [1] is 86%. Moreover, the Activity with KBV [2] turned out to be 98%; with KBV [3], 63%.
`CC(C)(C)OC(=O)N[C@@H](Cc1ccccc1)C(=O)O[C@H]1CC[C@]2(C)[C@H]3C[C@@H](O)[C@@H]4[C@@H]([C@]5(C)CC[C@H](C(C)(C)O)O5)CC[C@@]4(C)[C@]3(C)CC[C@H]2C1(C)C`: in data set [1], the viability at 72 h, 10 µM amounted to 125%. The Activity in the data set with KBV [2] (filed as modulator) is 48%; in the data set on KBV [3] (filed as modulator), 25%.
Take `C[C@@H](OCc1ccccc1)[C@H](NC(=O)OC(C)(C)C)C(=O)O[C@H]1CC[C@]2(C)[C@H]3C[C@@H](O)[C@@H]4[C@@H]([C@]5(C)CC[C@H](C(C)(C)O)O5)CC[C@@]4(C)[C@]3(C)CC[C@H]2C1(C)C`: the viability at 72 h, 10 µM in data set [1] stood at 138%. Besides, the Activity stood at 138% in the data set with KBV [2] and 144% in the data set with KBV [3].
On to `CC(C)(O)[C@@H]1CC[C@@](C)([C@H]2CC[C@]3(C)[C@@H]2[C@H](O)C[C@@H]2[C@@]4(C)CC[C@H](O)C(C)(C)[C@@H]4CC[C@]23C)O1`, for which the viability at 72 h, 10 µM in data set [1] came to 81%. Further, the values for the Activity in the data set with KBV [2] and with KBV [3] were 74% and 72%, respectively.
For the compound `CC(C)(C)OC(=O)N[C@@H](Cc1ccc(OC(C)(C)C)cc1)C(=O)O[C@H]1CC[C@]2(C)[C@H]3C[C@@H](O)[C@@H]4[C@@H]([C@]5(C)CC[C@H](C(C)(C)O)O5)CC[C@@]4(C)[C@]3(C)CC[C@H]2C1(C)C`, in data set [1], the viability at 72 h, 10 µM is 98%. The Activity in the data set on KBV [2] was 107%; in the data set with KBV [3], 71%.
As for `CC(C)(C)OC(=O)NCC(=O)O[C@H]1CC[C@]2(C)[C@H]3C[C@@H](O)[C@@H]4[C@@H]([C@]5(C)CC[C@@H](C(C)(C)O)O5)CC[C@@]4(C)[C@]3(C)CC[C@H]2C1(C)C`, the viability at 72 h, 10 µM in data set [1] was 107%. The Activity with KBV [2] (filed as modulator) was found to be 30%; with KBV [3] (filed as modulator), 18%.
Regarding `CC(C)(O)[C@@H]1CC[C@@](C)([C@H]2CC[C@]3(C)[C@@H]2[C@H](O)C[C@@H]2[C@@]4(C)CC[C@H](OC(=O)[C@@H](N)Cc5ccccc5)C(C)(C)[C@@H]4CC[C@]23C)O1`, in data set [1], the viability at 72 h, 10 µM was 100%. Moreover, the Activity was found to be 35% in the data set with KBV [2] (filed as modulator) and 29% in the data set on KBV [3] (filed as modulator).
`CC(C)[C@H](NC(=O)OC(C)(C)C)C(=O)O[C@H]1CC[C@]2(C)[C@H]3C[C@@H](O)[C@@H]4[C@@H]([C@]5(C)CC[C@@H](C(C)(C)O)O5)CC[C@@]4(C)[C@]3(C)CC[C@H]2C1(C)C`: in data set [1], the viability at 72 h, 10 µM was 128%. Moreover, the Activity in the data set on KBV [2] amounted to 106%; with KBV [3], 110%.
For the compound `CC(C)(O)[C@@H]1CC[C@@](C)([C@H]2CC[C@]3(C)[C@@H]2[C@H](O)C[C@@H]2[C@@]4(C)CC[C@H](OC(=O)[C@@H](N)Cc5c[nH]c6ccccc56)C(C)(C)[C@@H]4CC[C@]23C)O1`, the viability at 72 h, 10 µM in data set [1] amounted to 52%. The Activity with KBV [2] (filed as modulator) amounted to 30%; in the data set on KBV [3] (filed as modulator) it was 27%.
With `CC(C)(O)[C@@H]1CC[C@@](C)([C@H]2CC[C@]3(C)[C@@H]2[C@H](O)C[C@@H]2[C@@]4(C)CC[C@H](OC(=O)[C@@H](N)CCCCN)C(C)(C)[C@@H]4CC[C@]23C)O1`, the viability at 72 h, 10 µM in data set [1] stood at 81%. Moreover, the Activity with KBV [2] stood at 98%; in the data set on KBV [3], 82%.
As to `CC(C)(O)[C@H]1CC[C@@](C)([C@H]2CC[C@]3(C)[C@@H]2[C@H](O)C[C@@H]2[C@@]4(C)CC[C@H](OC(=O)[C@@H](N)Cc5c[nH]c6ccccc56)C(C)(C)[C@@H]4CC[C@]23C)O1`, the viability at 72 h, 10 µM in data set [1] was found to be 81%. Also, the Activity worked out at 32% in the data set with KBV [2] (filed as modulator) and 30% in the data set on KBV [3] (filed as modulator).
For `CC(C)(O)[C@H]1CC[C@@](C)([C@H]2CC[C@]3(C)[C@@H]2[C@H](O)C[C@@H]2[C@@]4(C)CC[C@H](OC(=O)[C@@H](N)CC(=O)O)C(C)(C)[C@@H]4CC[C@]23C)O1`, the viability at 72 h, 10 µM in data set [1] came out at 95%. In addition, the Activity in the data set with KBV [2] was determined as 106%; with KBV [3] it was 61%.
